Measured values reported in patent publication US8916526B2, “Flavanone derivative” (National University Corporation Okayama University, priority 2009, dated 2014).

How the values were obtained:
[1] = target: T1, Escherichia coli Topoisomerase IV (Escherichia coli, UniProt P0AFI2+P20083); experiment: Topoisomerase IV inhibition (decatenation kit), Exp. Ex. 2-3; assay type: biochemical; details: decatenation of kDNA, 37° C., 30 minutes; read-out: IC50 (E. coli topoisomerase IV inhibitions)
T1 construct: purchased John Innes Enterprises
Summary of the method: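 Decatenation of 200 ng kinetoplast DNA by 1 unit enzyme, 30 min at 37 °C. S. aureus: 50 mM Tris-HCl pH 7.5, 350 mM potassium glutamate, 1.5 mM ATP; E. coli: 50 mM HEPES-KOH pH 7.6, 100 mM potassium glutamate, 1 mM ATP. Products resolved on 1.0% agarose in TAE.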

E. coli DNA gyrase = target: T2, E. coli DNA gyrase (Escherichia coli, UniProt P0AES4+P0AES6); experiment: DNA gyrase inhibition (supercoiling kit), Exp. Ex. 2-2; assay type: biochemical
T2 construct: purchased John Innes Enterprises #K0001
Summary of the method: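 IC50 derived from gel electrophoresis separating supercoiled from relaxed DNA. Reactions ran 30 minutes at 37° C with 1 U gyrase, […] relaxed pBR322, 1 mM ATP and 4 mM MgCl2 in Tris-HCl buffer (pH 7.5), then stopped with EDTA-containing solution.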

[2] = test system: Vancomycin intermediate-resistant Staphylococcus aureus Mu50; experiment: In vitro infectivity assay (MIC), Exp. Ex. 2-1; assay type: cell-based; details: Staphylococcus aureus, VISA; Gram-positive; microdilution, MIC after 24 h; read-out: MIC VISA Mu50
Summary of the method: (§1)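 CLSI broth dilution; Mueller-Hinton + 0.85% NaCl; inoculum ~10^5 CUF/[…]; 35° C, 24 h; MIC read, n=3.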

[3] = test system: Vancomycin-resistant enterococci NCTC 12201; experiment: In vitro infectivity assay (MIC), Exp. Ex. 2-1; assay type: cell-based; details: Enterococcus, NCTC 12201 / VRE; Gram-positive; microdilution, MIC after 24 h; read-out: MIC VRE NCTC 12201
Summary of the method: as §1

[4] = test system: Vancomycin-resistant enterococci FN-1; experiment: In vitro infectivity assay (MIC), Exp. Ex. 2-1; assay type: cell-based; details: Enterococcus, VRE; Gram-positive; microdilution, MIC after 24 h; read-out: MIC VRE FN-1
Summary of the method: as §1

T1 sequence (P20083 whole entry): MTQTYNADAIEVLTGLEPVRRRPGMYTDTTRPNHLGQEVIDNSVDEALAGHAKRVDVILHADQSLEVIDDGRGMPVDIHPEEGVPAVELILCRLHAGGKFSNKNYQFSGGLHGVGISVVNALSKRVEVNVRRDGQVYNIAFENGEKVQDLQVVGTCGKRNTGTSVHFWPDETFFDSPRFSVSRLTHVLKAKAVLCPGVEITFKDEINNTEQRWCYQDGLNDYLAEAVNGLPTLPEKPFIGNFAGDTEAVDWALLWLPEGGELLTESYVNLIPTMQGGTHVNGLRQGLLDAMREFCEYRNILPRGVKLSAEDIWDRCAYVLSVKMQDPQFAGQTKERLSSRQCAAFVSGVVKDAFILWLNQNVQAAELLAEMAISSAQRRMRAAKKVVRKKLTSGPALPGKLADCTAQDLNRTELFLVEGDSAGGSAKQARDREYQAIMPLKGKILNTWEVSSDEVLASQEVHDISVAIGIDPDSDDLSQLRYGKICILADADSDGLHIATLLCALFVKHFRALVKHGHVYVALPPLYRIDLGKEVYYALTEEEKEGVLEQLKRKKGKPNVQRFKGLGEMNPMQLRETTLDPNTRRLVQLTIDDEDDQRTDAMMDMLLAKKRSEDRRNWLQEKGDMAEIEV
T1 sequence (P0AFI2 whole entry): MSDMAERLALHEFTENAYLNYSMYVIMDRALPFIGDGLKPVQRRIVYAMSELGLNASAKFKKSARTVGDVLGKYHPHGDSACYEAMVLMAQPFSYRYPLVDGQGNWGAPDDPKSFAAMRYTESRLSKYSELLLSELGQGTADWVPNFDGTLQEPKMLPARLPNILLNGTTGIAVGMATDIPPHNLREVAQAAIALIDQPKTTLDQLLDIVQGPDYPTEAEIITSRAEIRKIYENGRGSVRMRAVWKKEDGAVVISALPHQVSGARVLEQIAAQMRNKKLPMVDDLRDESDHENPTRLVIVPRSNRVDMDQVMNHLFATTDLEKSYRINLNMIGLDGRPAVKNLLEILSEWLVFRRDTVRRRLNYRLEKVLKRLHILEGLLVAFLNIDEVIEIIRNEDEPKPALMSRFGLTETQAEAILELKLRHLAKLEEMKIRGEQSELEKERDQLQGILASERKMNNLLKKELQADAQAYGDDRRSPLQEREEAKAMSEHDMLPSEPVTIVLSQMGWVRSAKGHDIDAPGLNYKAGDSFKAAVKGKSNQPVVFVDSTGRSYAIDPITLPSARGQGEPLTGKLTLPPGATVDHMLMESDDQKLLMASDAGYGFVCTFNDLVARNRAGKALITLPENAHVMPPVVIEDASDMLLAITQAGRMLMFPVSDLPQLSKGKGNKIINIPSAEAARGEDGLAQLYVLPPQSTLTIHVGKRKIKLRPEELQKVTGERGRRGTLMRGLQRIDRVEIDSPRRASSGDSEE
T2 sequence (P0AES4 whole entry, one chain of several): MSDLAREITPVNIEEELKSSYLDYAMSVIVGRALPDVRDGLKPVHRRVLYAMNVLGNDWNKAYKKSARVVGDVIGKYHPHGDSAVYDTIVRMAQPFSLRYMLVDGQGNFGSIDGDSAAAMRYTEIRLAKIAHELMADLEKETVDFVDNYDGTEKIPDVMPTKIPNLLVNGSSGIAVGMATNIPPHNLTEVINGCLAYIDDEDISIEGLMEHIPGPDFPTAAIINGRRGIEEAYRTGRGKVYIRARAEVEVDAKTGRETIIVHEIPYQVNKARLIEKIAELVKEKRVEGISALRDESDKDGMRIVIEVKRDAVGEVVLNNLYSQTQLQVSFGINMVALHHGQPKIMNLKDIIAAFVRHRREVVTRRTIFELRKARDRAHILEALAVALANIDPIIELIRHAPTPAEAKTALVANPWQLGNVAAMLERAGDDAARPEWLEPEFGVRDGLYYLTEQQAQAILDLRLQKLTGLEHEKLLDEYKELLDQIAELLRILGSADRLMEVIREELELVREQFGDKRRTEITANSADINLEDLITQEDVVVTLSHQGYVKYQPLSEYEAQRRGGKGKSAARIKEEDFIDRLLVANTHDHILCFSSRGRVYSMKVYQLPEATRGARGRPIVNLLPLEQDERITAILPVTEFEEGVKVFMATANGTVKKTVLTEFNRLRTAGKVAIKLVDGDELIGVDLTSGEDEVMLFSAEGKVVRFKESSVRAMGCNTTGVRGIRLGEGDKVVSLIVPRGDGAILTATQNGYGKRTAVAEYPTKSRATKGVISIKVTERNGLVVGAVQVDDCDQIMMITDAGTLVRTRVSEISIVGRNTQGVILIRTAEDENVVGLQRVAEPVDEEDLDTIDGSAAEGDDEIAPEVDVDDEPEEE

Structure (SMILES): O=c1c(O)c(-c2ccc(O)c(O)c2)oc2cc(O)cc(O)c12 [Quercetin, quercetin, reference compound]
- IC50 [1]: 4420 nM
- IC50 (E. coli DNA gyrase): 140 nM
- MIC [2]: > 128 µg/mL
- MIC [3]: > 128 µg/mL
- MIC [4]: > 128 µg/mL
